This note sets out measurements from patent publication US7462622B2, “Pyrrolo[2, 3-d] pyrimidine derivatives as corticotropin releasing factor antagonists” (Glaxo Group Limited, priority 2001, dated 2008).

For the experiment, the system named is recombinant human CRF receptors. As to the kind of experiment: CRF receptors-binding assay by scintillation proximity (SPA), displacement of 125I-oCRF (CRF1) / 125I-Sauvagine (CRF2). To be noted: qualitative statement; assay not specified. The method, then:
The CRF receptors-binding assay was performed by using the homogeneous technique of scintillation proximity (SPA). The ligand binds to recombinant membrane preparation expressing the CRF receptors which in turn bind to wheat germ agglutinin coated SPA beads. In the Experimental Part will be disclosed the details of the experiments.
CRF binding affinity has been determined in vitro by the compounds' ability to displace ^125I-oCRF and ^125I-Sauvagine for CRF1 and CRF2 SPA, respectively, from recombinant human CRF receptors expressed in Chinese Hamster Ovary (CHO) cell membranes. For membrane preparation, CHO cells from confluent T-flasks were collected in SPA buffer (HEPES/KOH 50 mM, EDTA 2 mM; MgCl2 10 mM, pH 7.4.) in 50 mL centrifuge tubes, homogenized with a Polytron and centrifuged (50,000 g for 5 min at 4° C.: Beckman centrifuge with JA20 rotor). The pellet was resuspended, homogenized and centrifuged as before.
The SPA experiment has been carried out in Optiplate by the addition of 100 μL the reagent mixture to 1 μL of compound dilution (100% DMSO solution) per well. […]
The plate was incubated overnight (>18 hrs) at room temperature and read with the Packard Topcount with a WGA-SPA ^125I counting protocol.
A general note: In a scintillation proximity assay essentially only radioactivity close to the scintillant gives light.

On to `CCC(COC)Oc1nc(C)nc2c1CCN2c1ccc(C(F)(F)F)cc1C(F)(F)F` (stereo not shown) [Compound 1-12, 7-(2,4-bis-trifluoromethyl-phenyl)-4-(1-methoxymethyl-propoxy)-2-methyl-6,7-dihydro-5H-pyrrolo[2,3-d]pyrimidine], for which the activity entry is on record as “good activity”.
